These results are taken from patent US8709420B2 (GlaxoSmithKline Intellectual Property Limited, priority 2010, dated 2014).

Values after ≈ are worked out from the molar mass of the structure shown. Values joined by “and” are separate entries in the source; they are usually repeats but may differ in a detail not shown here. Equal values may be shown once.

In one series the test system is HUVEC. Put plainly: In-vitro cytotoxicity, Alamar Blue cell viability. The following applies: Homo sapiens, 72 h treatment, read-out: IC50, reduction in viability of HUVEC cells. It counts as cell-based. In general terms: The colour change of resazurin is a common sign of viable cells or microbes.
Series [1] concerns BE(2)-c neuroblastoma cell line. Description: In-vitro cytotoxicity, Alamar Blue cell viability. The following applies: Homo sapiens, topotecan alone, 72 h. It counts as cell-based. From the text: (§1) SK-N-BE(2) (MYCN amplified) and SH-SY5Y (non-MYCN amplified neuroblastoma cell lines) were obtained from American Type Culture Collection (ATCC) (Manassas, Va.); BE(2)-c sub-clone of SK-N-BE(2) was obtained from Dr. Michelle Haber (Children's Cancer Institute for Medical Research, Lowry Cancer Research Centre, Randwick, Australia); Human Umbilical Vein Endothelial Cells (HUVECs) were obtained from Dr. Herman Yeger (The Hospital for Sick Children, Toronto, Ontario, Canada) and Tumor Initiating (TIC) cell lines NB12 and NB88, were obtained from Dr. David Kaplan (The Hospital for Sick Children, Toronto, Ontario, Canada). TICs NB12 and NB88 were isolated from the bone marrow metastases of relapsed high-risk neuroblastoma patients. Neuroblastoma cell lines SK-N-BE(2) and SH-SY5Y were grown in alpha-MEM containing 10% fetal bovine serum and 1% antibiotic mixture in humidified atmosphere at 37° C. with 5% CO2. NB12 and NB 88 were cultured as described previously.
(§2) Cell viability was determined by Alamar Blue assay. Alamar blue (10% of total volume was added to each well three hours prior to fluorometric detection). Fluorometric detection was performed using the SPECTRAmax gemini Spectrophotometer at excitation wavelength of 540 nm and emission wavelength of 590 nm.

Series [2] relates to NB12 tumor initiating cell line. Description: In-vitro cytotoxicity, Alamar Blue cell viability. Type of series: cell-based. Particulars: topotecan alone, 72 h.
Excerpt: as §1, §2

The test system of series [3] is NB88 tumor initiating cell line. Description: In-vitro cytotoxicity, Alamar Blue cell viability. It counts as cell-based. The following applies: topotecan alone, 72 h.
Excerpt: as §1, §2

Series [4] concerns BE(2)-c experimental metastases. Put plainly: BE(2)-c metastatic tumor model. It counts as in vivo, NOD/SCID mice.
Procedure: 1×10^6 BE(2)-c cells were injected into lateral tail veins of NOD/SCID mice to generate ‘experimental’ metastases. […] The treatment was continued until death or end point.
In the metastatic model, the animals' organs (liver, kidney, adrenal, and femur) were removed after the death/sacrifice of animals, and were fixed in 10% formalin and paraffin-embedded. These paraffin-embedded sections were then stained with hematoxylin and eosin and microscopically examined.
The next series has as its system KHOS xenograft. Description: KHOS osteosarcoma mouse xenograft model. Type of series: in vivo, NOD/SCID mice.
Series [5] concerns circulating endothelial cells (CECs), CEPs, WBC. Put plainly: Viable CECs, CEPs and WBC in KHOS osteosarcoma model. Type of series: in vivo, NOD/SCID mice. The following applies: 21 days treatment. How it is done: Procedure: Approximately 160 μl of blood was sampled in heparinized microtubes at 21st day of treatment by saphenous vein puncturing. These blood samples were stored at 4° C. until analysis. CEC/CEP measurement was done within 48 h of blood collection by flow cytometry.

For series [6], the system named is KHOS xenograft tumor microvasculature. Put plainly: Microvessel density by von Willebrand factor staining of KHOS xenografts. Type of series: in vivo, NOD/SCID mice. The following applies: after 28 days treatment. Here is the method:
Procedure: Formalin fixed tissues were paraffin embedded and sections cut at 7 um. […] The primary antibody was von Willebrand factor (#A0082; DakoCytomation, Glostrup, Denmark). After the primary antibody treatment, the slides were washed three times with PBS and incubated with broad spectrum poly-horse radish peroxidase (HRP) conjugate secondary antibody (87-9663, Invitrogen) for 1 h at room temperature. After washing three times with PBS, slides were stained with diaminobenzidine (DAB) and counterstained with hematoxylin. Microscopic images of six fields of high vascular density were digitally captured. The pixel values for stained areas were quantified using ImageJ software. Tumor angiogenesis was quantified as the number of pixels of regions positive for von Willebrand Factor.

Series [7] concerns circulating endothelial progenitor cells (CEPs). Put plainly: CEP/CEC flow cytometry in SK-N-BE(2) xenograft model. Type of series: in vivo, mouse. The following applies: after one week treatment. Here is the method:
Approximately 160 μl of mouse blood was collected in K2-EDTA tubes by saphenous vein puncture from animals of the SK-N-BE(2) xenograft model (after one week treatment) and BE(2)-c metastatic model (after one week and four weeks treatment). Blood was immediately stored at 4° C. until analysis. The CEP/CECs were measured by flow cytometry within 48 hrs of blood collection as previously described. CEPs were defined as CD45−, VEGFR-2+, CD117+, and CD13+, while CECs were defined as CD45−, VEGFR-2+, CD117−, and CD13+. The absolute number of CEPs was calculated as the percentage of events collected in CEP enumeration gates multiplied by the total white blood cell (WBC) count.
In general terms: A flow cytometer gives signals particle by particle.

For series [8], the system named is Rh4 rhabdomyosarcoma cell line. It counts as cell-based. How it is done:
Materials: The cells were cultured at 37° C. in 5% CO2 in a-MEM (Multicell; Wisent, Inc., St. Bruno, Quebec, Canada) with 10% fetal bovine serum (FBS; Life Technologies, Grand Island, N.Y.) and 1% antibiotic mixture, containing 10000 IU penicillin and 10000 μg/ml streptomycin (Multicell; Wisent, Inc., St. Bruno, Quebec, Canada). Trypsin-EDTA, containing 0.05% trypsin and 0.53 mM EDTA was also purchased from Multicell; Wisent, Inc., St. Bruno, Quebec, Canada.
Procedure: A total of 20,000 cells were plated in each well of 48 well-plates and incubated at 37° C. in 5% CO2. After 48 h, the cells were treated with various concentrations of drugs. After 72 h of treatment, the cell viability was determined by alamar blue assay.

The conditions of series [9]: previously reported; cited from earlier work.

What is called IC50 is the concentration that gives 50% inhibition. With `CC[C@@]1(O)C(=O)OCc2c1cc1n(c2=O)Cc2cc3c(CN(C)C)c(O)ccc3nc2-1` [topotecan], the IC50 with HUVEC came to 0.00487 µg/mL (≈ 0.0116 µM); in [1] it was 0.0456 µg/mL (≈ 0.108 µM); in series [2], 0.0631 µg/mL (≈ 0.15 µM); in series [3] it was 0.0039 µg/mL (≈ 0.00925 µM). For the same molecule, the “survival span, TP versus PZ treated group” value in series [4] (P<0.05) was “higher”. The “histology of organs: tumors in liver and kidney” value in series [4] (at time of death or end point) is “macroscopically detectable tumors in liver and kidney”. Moreover, in [4] (daily oral gavage from 14 days after i.v. cell injection, TP 1.0 mg/Kg, TP+PZ plus 150 mg/Kg pazopanib), the mean survival span is 52.4 days. Also, the tumor growth rate entry is listed as “delayed the tumor growth rate” in the series on KHOS xenograft (27 days daily oral, LDM topotecan 1.0 mg/kg, combination 1.0 mg/Kg topotecan and 150 mg/Kg pazopanib); “delayed the tumor growth rate” in the series on KHOS xenograft (Pulse topotecan 15 mg/Kg, 27 days). For the same molecule, the “tumor weights, Pulse versus LDM topotecan” value in the series on KHOS xenograft (after 27 days treatment) is given as “No significant differences”. The “CEP, significance versus Pulse” value in series [5] was “* (* P < 0.05)”. Also, the “WBC, significance versus Pulse” value in series [5] is recorded as “* (* P < 0.05)”. In series [5], the “White Blood Cell (WBC) levels compared to pulse TP” value is reported as “significantly lower”. Further, the “viable CEP levels compared to pulse TP” value in series [5] is given as “significantly lower”. Further, the “levels of viable CECs versus control” value in series [5] (LDM TP 1.0 mg/kg, TP+PZ) is on record as “significantly reduced”; in series [5] (Pulse TP 15 mg/Kg), “significantly reduced”. Besides, the “levels of viable CEPs versus control” value in series [5] (LDM TP 1.0 mg/kg, TP+PZ) is given as “significantly reduced”; in series [5] (Pulse TP 15 mg/Kg) it was “significantly reduced”. In addition, the “CEC, significance versus Control” value in [5] (Pulse topotecan 15 mg/Kg) was “* (* P < 0.05)”; in series [5] (TP (LDM 1.0 mg/kg), TP + PZ) it was “** (** P < 0.005)”. For the same molecule, the “CEP, significance versus Control” value in series [5] (Pulse topotecan 15 mg/Kg) is recorded as “* (* P < 0.05)”; in [5] (TP (LDM 1.0 mg/kg), TP + PZ) it was “** (** P < 0.005)”. Moreover, in series [5] (TP (LDM 1.0 mg/kg), TP + PZ), the “WBC, significance versus Control” value is “* (* P < 0.05)”. Also, the “microvessel densities versus control” value in [6] (LDM TP, TP+PZ) is “significantly lower”; in series [6] (Pulse TP), “significantly lower”.

Turning to `Cc1ccc(Nc2nccc(N(C)c3ccc4c(C)n(C)nc4c3)n2)cc1S(N)(=O)=O` [pazopanib, 5-[[4-[(2,3-dimethyl-2H-indazol-6-yl)methylamino]-2-pyrimidinyl]amino]-2-methylbenzenesulfonamide], in series [7], the “mean values of CEPs compared to control” value is given as “statistically significant difference”. Besides, the “cell viability / cytotoxicity” value in series [8] is “did not show cytotoxicity”. Also, the “optimal plasma concentration of pazopanib effectiveness” value in [9] was “≈ 18 μg/ml and 40 μM”.
